{
  "source": "patent US5574008A",
  "about": "“Biologically active fragments of glucagon-like insulinotropic peptide” (Eli Lilly and Company, priority 1994, dated 1996)",
  "target": "T1, rat GLP-1 receptor (Rattus norvegicus, UniProt P32301)",
  "T1 construct": "expressed in transfected cells; host or cells: Dihydrofolate reductase-deficient Chinese hamster ovary cell line DXB-11; membrane preparation",
  "T1 sequence (P32301 22-463)": "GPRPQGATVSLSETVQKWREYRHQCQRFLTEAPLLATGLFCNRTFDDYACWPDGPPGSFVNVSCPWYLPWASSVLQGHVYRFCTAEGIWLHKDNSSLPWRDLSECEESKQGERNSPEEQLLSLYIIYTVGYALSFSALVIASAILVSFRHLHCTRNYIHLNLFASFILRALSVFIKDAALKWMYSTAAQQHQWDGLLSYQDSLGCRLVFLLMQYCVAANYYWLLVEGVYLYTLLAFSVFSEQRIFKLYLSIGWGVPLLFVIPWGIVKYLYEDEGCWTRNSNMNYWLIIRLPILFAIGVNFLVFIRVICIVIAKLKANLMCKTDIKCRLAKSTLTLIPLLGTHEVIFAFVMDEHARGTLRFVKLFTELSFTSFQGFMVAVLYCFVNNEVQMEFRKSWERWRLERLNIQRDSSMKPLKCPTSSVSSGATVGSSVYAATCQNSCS",
  "assay": "In vitro GLP-1 agonist cAMP assay (particle concentration fluorescence immunoassay, membrane preparation)",
  "assay_type": "biochemical",
  "protocol": "Cells were grown to confluency in 10% dialyzed fetal bovine serum/high glucose Dulbecco's Modified Eagle Medium with 0.1% proline at 37° C. The cell were then harvested, and membranes were prepared by first washing the cells with phosphate buffered saline (PBS), then twice with cold buffer (25 mM 4-(2-hydroxyethyl)-1 piperazineethanesulfonic acid (HEPES), 2 mM MgCl2, 1 mM ethylenedinitrilo-tetraacetic acid (EDTA), 20 μg/ml Leupeptin, 1 mM phenylmethyl sulfonyl fluoride (PMSF), 2 μg/ml Aprotinin, 50 μg/ml Trypsin Inhibitor, pH 8.0). The washed cells were resuspended in cold buffer, lysed in a glass Teflon homogenizer and then centrifuged at 35,300 g for 30 minutes at 4° C. The supernatant was removed and the pellet resuspended in cold buffer and homogenized. Two hundred μl aliquots (3.2 mg/ml) were stored at -80° C.\nBriefly, 10 μl of membrane prep (80 μg/ml) was preincubated with 10 μl of test compound or reference compound in buffer (25 mM HEPES, 0.2% (w/v) bovine serum albumin (BSA), pH 7.6) at 32° C. for 10 minutes. Five μl of reaction buffer (25 mM HEPES, 0.2% (w/v) BSA, 13 mM (CH3 C00)2 Mg.4H2 O, 4 mM adenosine-5'-triphosphate (ATP), 40 nM guanosine 5'-O-3'thiotriphosphate (GTP-∂-s), 25 mM creatine phosphate, creatine kinase 250 U/ml, 1 mM 3-Isobutyl-1-methyl xanthine (IBMX), pH 7.6) was added and incubated for an additional 30 minutes. Incubations were stopped by adding 25 μl 10 mM EDTA and fluorescent tracer (cAMP-β phycoerythrin conjugate).\nThis assay, a particle concentration fluorescence immunoassay, was based on the competition between unlabelled cAMP and a fixed amount of fluorescent labelled cAMP for a limited number of binding sites on a cAMP specific antibody. By keeping the quantity of fluorescent ligand and antibody fixed, the amount of fluorescent ligand bound by the antibody was inversely proportional to the concentration of unlabelled cAMP. The antibody-bound cAMP was then captured by anti-rabbit IgG coated assay particles. Separation of the bound antibody fraction was achieved by filtration on Fluoricon®-Ca Assay Plates. After measuring the fluorescence in the pellet, the amount of bound fluorescent cAMP was calculated. The rate of cAMP production (pmol/min/mg) was then determined by interpolation from a standard curve.",
  "data": [
    {"smiles": "CC[C@H](C)[C@H](NC(=O)[C@H](Cc1ccccc1)NC(=O)[C@H](CCC(=O)O)NC(=O)[C@H](CCCCN)NC(=O)[C@H](C)NC(=O)[C@H](C)NC(=O)[C@H](CCC(N)=O)NC(=O)CNC(=O)[C@H](CCC(=O)O)NC(=O)[C@H](CC(C)C)NC(=O)[C@H](Cc1ccc(O)cc1)NC(=O)[C@H](CO)NC(=O)[C@H](CO)NC(=O)[C@@H](NC(=O)[C@H](CC(=O)O)NC(=O)[C@H](CO)NC(=O)[C@@H](NC(=O)[C@H](Cc1ccccc1)NC(=O)[C@@H](NC(=O)CNC(=O)[C@@H](N)CCC(=O)O)[C@@H](C)O)[C@@H](C)O)C(C)C)C(=O)N[C@@H](C)C(=O)N[C@@H](Cc1c[nH]c2ccccc12)C(=O)N[C@@H](CC(C)C)C(=O)N[C@H](C(=O)N[C@@H](CCCCN)C(=O)NCC(=O)N[C@@H](CCCNC(=N)N)C(N)=O)C(C)C", "note": "[GLP-1(9-36)NH2]", "values": [
      {"measurement": "cAMP produced", "setting": "Dose 0.005 nM", "result": 21.165, "unit": "pmol/min/mg"},
      {"measurement": "cAMP produced", "setting": "Dose 0.01 nM", "result": 21.743, "unit": "pmol/min/mg"},
      {"measurement": "cAMP produced", "setting": "Dose 0.02 nM", "result": 20.678, "unit": "pmol/min/mg"},
      {"measurement": "cAMP produced", "setting": "Dose 0.05 nM", "result": 22.602, "unit": "pmol/min/mg"},
      {"measurement": "cAMP produced", "setting": "Dose 0.1 nM", "result": 22.033, "unit": "pmol/min/mg"},
      {"measurement": "cAMP produced", "setting": "Dose 0.4 nM", "result": 21.460, "unit": "pmol/min/mg"},
      {"measurement": "cAMP produced", "setting": "Dose 1 nM", "result": 21.588, "unit": "pmol/min/mg"},
      {"measurement": "cAMP produced", "setting": "Dose 4 nM", "result": 21.046, "unit": "pmol/min/mg"},
      {"measurement": "cAMP produced", "setting": "Dose 10 nM", "result": 22.320, "unit": "pmol/min/mg"},
      {"measurement": "cAMP produced", "setting": "Dose 100 nM", "result": 19.156, "unit": "pmol/min/mg"}
    ]}
  ]
}
